Measured values as given in patent US6737383B1, “Herbicidal oxadiazolidines” (priority 1999, dated 2004).

Key:
morningglory = assay: Test B pre/postemergence morningglory; format: in vivo, Ipomoea hederacea; details: for Morningglory plant response rating (0 to 10 scale): 0 is no effect
Procedure, shortened: (§1)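 Test chemicals in a non-phytotoxic solvent mixture with surfactant were sprayed preemergence onto planted seeds and postemergence onto plants 2 to 18 cm tall (1- to 4-leaf stage). After twelve to sixteen days in a greenhouse, injury was visually rated against untreated controls from 0 (no effect) to 10 (complete control).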

velvetleaf = assay: Test B pre/postemergence velvetleaf; format: in vivo, Abutilon theophrasti; details: for Velvetleaf plant response rating (0 to 10 scale): 0 is no effect
Procedure, shortened: as §1

wild oat = assay: Test B pre/postemergence wild oat; format: in vivo, Avena fatua; details: for Wild oats plant response rating (0 to 10 scale): 0 is no effect
Procedure, shortened: as §1

bedstraw = assay: Test B pre/postemergence bedstraw; format: in vivo, Galium aparine; details: for Bedstraw plant response rating (0 to 10 scale): 0 is no effect
Procedure, shortened: as §1

[1] = Postemergence, Rate 62 g/ha, scale 0 to 10, 0 is no effect, 10 is complete control
[2] = Postemergence, Rate 125 g/ha, scale of 0 to 10 where 0 is no effect and 10 is complete control
[3] = Postemergence, Rate 250 g/ha, scale 0 to 10, 0 no effect, 10 complete control
[4] = Preemergence, Rate 62 g/ha, scale 0 to 10 (0 no effect, 10 complete control)
[5] = Preemergence, Rate 125 g/ha, scale 0 to 10 (0 no effect, 10 complete control)
[6] = Preemergence, Rate 250 g/ha, scale of 0 to 10 where 0 is no effect and 10 is complete control
[7] = Preemergence, Rate 500 g/ha, scale 0 (no effect) to 10 (complete control)
[8] = Rate 500 g/ha, Postemergence, scale 0 to 10, 0 no effect, 10 complete control
[9] = Preemergence, Rate 125 g/ha, 10 is complete control
[10] = Rate 250 g/ha, Postemergence, scale 0 to 10, 0 is no effect, 10 is complete control
[11] = Preemergence, Rate 250 g/ha, scale 0 to 10, 0 is no effect, 10 is complete control
[12] = Preemergence, Rate 500 g/ha, scale 0 to 10 (0 no effect, 10 complete control)
[13] = Rate 62 g/ha, Postemergence, scale of 0 to 10 where 0 is no effect and 10 is complete control
[14] = Rate 500 g/ha, Postemergence, scale 0 to 10
[15] = Preemergence, Rate 62 g/ha, scale of 0 to 10 where 0 is no effect and 10 is complete control
[16] = Preemergence, Rate 31 g/ha, visual rating, scale 0 to 10 (0 no effect, 10 complete control)
[17] = Rate 31 g/ha, Postemergence, scale 0 to 10
[18] = Rate 125 g/ha, Postemergence, scale 0 to 10

CC(C)N(C(=O)n1oc(=O)n(-c2cnn(C)c2Cl)c1=O)c1ccc(F)cc1 [Compound 97]
Morningglory plant response rating (morningglory; [1]): 1
Morningglory plant response rating (morningglory; [2]): 1
Morningglory plant response rating (morningglory; [3]): 3
Morningglory plant response rating (morningglory; [4]): 0
Plant response rating, Morningglory (morningglory; [5]): 0
Plant response rating, Morningglory (morningglory; [6]): 0
Morningglory plant response rating (morningglory; [7]): 0
Morningglory plant response rating (morningglory; [8]): 3
Velvetleaf plant response rating (velvetleaf; [1]): 0
Velvetleaf plant response rating (velvetleaf; [2]): 0
Velvetleaf plant response rating (velvetleaf; [4]): 0
Velvetleaf plant response rating (0 to 10 scale) (velvetleaf; [9]): 0
Plant response rating, Velvetleaf (velvetleaf; [6]): 0
Velvetleaf plant response rating (velvetleaf; [7]): 0
Plant response rating, Velvetleaf (velvetleaf; [10]): 2
Velvetleaf plant response rating (velvetleaf; [8]): 3
Wild oats plant response rating (wild oat; [1]): 0
Wild oats plant response rating (wild oat; [2]): 0
Wild oats plant response rating (wild oat; [4]): 0
Wild oats plant response rating (0 to 10 scale) (wild oat; [9]): 2
Plant response rating, Wild oats (wild oat; [6]): 2
Wild oats plant response rating (wild oat; [7]): 5
Plant response rating, Wild oats (wild oat; [10]): 0
Wild oats plant response rating (wild oat; [8]): 0
Bedstraw plant response rating (bedstraw; [1]): 0
Bedstraw plant response rating (bedstraw; [3]): 1
Plant response rating, Bedstraw (bedstraw; [5]): 0
Plant response rating, Bedstraw (bedstraw; [6]): 0
Bedstraw plant response rating (bedstraw; Rate 125 g/ha, Postemergence, scale 0 to 10, 0 no effect, 10 complete control): 0
Bedstraw plant response rating (bedstraw; [8]): 3

CCN(CC)C(=O)n1oc(=O)n(Cc2ccccc2)c1=O [Compound 152]
Morningglory plant response rating (morningglory; [2]): 0
Morningglory plant response rating (morningglory; [4]): 0
Morningglory plant response rating (0 to 10 scale) (morningglory; [9]): 0
Morningglory plant response rating (morningglory; [11]): 0
Morningglory plant response rating (morningglory; [12]): 0
Morningglory plant response rating (morningglory; [13]): 0
Plant response rating, Morningglory (morningglory; [10]): 0
Morningglory plant response rating (morningglory; [14]): 0
Velvetleaf plant response rating (velvetleaf; [4]): 0
Velvetleaf plant response rating (0 to 10 scale) (velvetleaf; [9]): 0
Velvetleaf plant response rating (velvetleaf; [11]): 0
Velvetleaf plant response rating (velvetleaf; [12]): 0
Velvetleaf plant response rating (velvetleaf; [13]): 0
Plant response rating, Velvetleaf (velvetleaf; [10]): 0
Velvetleaf plant response rating (velvetleaf; [14]): 0
Wild oats plant response rating (wild oat; [4]): 0
Wild oats plant response rating (0 to 10 scale) (wild oat; [9]): 0
Wild oats plant response rating (wild oat; [11]): 0
Wild oats plant response rating (wild oat; [12]): 0
Wild oats plant response rating (wild oat; [13]): 0
Plant response rating, Wild oats (wild oat; [10]): 0
Wild oats plant response rating (wild oat; [14]): 0
Bedstraw plant response rating (bedstraw; [2]): 0
Bedstraw plant response rating (bedstraw; [4]): 0
Bedstraw plant response rating (0 to 10 scale) (bedstraw; [9]): 0
Bedstraw plant response rating (bedstraw; [11]): 0
Bedstraw plant response rating (bedstraw; [12]): 0
Bedstraw plant response rating (bedstraw; [13]): 0
Plant response rating, Bedstraw (bedstraw; [10]): 0
Bedstraw plant response rating (bedstraw; [8]): 0

C=CCn1c(=O)on(C(=O)N(c2ccc(F)cc2)C2CC2)c1=O [Compound 154]
Morningglory plant response rating (morningglory; [2]): 0
Morningglory plant response rating (morningglory; [4]): 0
Morningglory plant response rating (0 to 10 scale) (morningglory; [9]): 0
Morningglory plant response rating (morningglory; [11]): 0
Morningglory plant response rating (morningglory; [12]): 0
Morningglory plant response rating (morningglory; [13]): 0
Plant response rating, Morningglory (morningglory; [10]): 1
Morningglory plant response rating (morningglory; [14]): 2
Velvetleaf plant response rating (velvetleaf; [4]): 0
Velvetleaf plant response rating (0 to 10 scale) (velvetleaf; [9]): 0
Velvetleaf plant response rating (velvetleaf; [11]): 0
Velvetleaf plant response rating (velvetleaf; [12]): 0
Velvetleaf plant response rating (velvetleaf; [13]): 0
Plant response rating, Velvetleaf (velvetleaf; [10]): 0
Velvetleaf plant response rating (velvetleaf; [14]): 0
Wild oats plant response rating (wild oat; [4]): 0
Wild oats plant response rating (0 to 10 scale) (wild oat; [9]): 0
Wild oats plant response rating (wild oat; [11]): 4
Wild oats plant response rating (wild oat; [12]): 5
Wild oats plant response rating (wild oat; [13]): 0
Plant response rating, Wild oats (wild oat; [10]): 0
Wild oats plant response rating (wild oat; [14]): 1
Bedstraw plant response rating (bedstraw; [2]): 0
Bedstraw plant response rating (bedstraw; [4]): 0
Bedstraw plant response rating (0 to 10 scale) (bedstraw; [9]): 0
Bedstraw plant response rating (bedstraw; [11]): 0
Bedstraw plant response rating (bedstraw; [12]): 0
Bedstraw plant response rating (bedstraw; [13]): 0
Plant response rating, Bedstraw (bedstraw; [10]): 0

Cc1nsc(C)c1-n1c(=O)on(C(=O)N(c2ccc(Cl)cc2)C(C)C)c1=O [Compound 159]
Morningglory plant response rating (morningglory; [2]): 2
Morningglory plant response rating (morningglory; [15]): 0
Morningglory plant response rating (0 to 10 scale) (morningglory; [9]): 0
Morningglory plant response rating (morningglory; [11]): 0
Morningglory plant response rating (morningglory; [12]): 0
Morningglory plant response rating (morningglory; [13]): 0
Plant response rating, Morningglory (morningglory; [10]): 3
Morningglory plant response rating (morningglory; [14]): 4
Velvetleaf plant response rating (velvetleaf; [15]): 0
Velvetleaf plant response rating (0 to 10 scale) (velvetleaf; [9]): 0
Velvetleaf plant response rating (velvetleaf; [11]): 0
Velvetleaf plant response rating (velvetleaf; [12]): 0
Plant response rating, Velvetleaf (velvetleaf; [10]): 0
Velvetleaf plant response rating (velvetleaf; [14]): 0
Wild oats plant response rating (wild oat; [15]): 0
Wild oats plant response rating (0 to 10 scale) (wild oat; [9]): 0
Wild oats plant response rating (wild oat; [11]): 0
Wild oats plant response rating (wild oat; [12]): 0
Plant response rating, Wild oats (wild oat; [10]): 0
Wild oats plant response rating (wild oat; [14]): 0
Bedstraw plant response rating (bedstraw; [2]): 0
Bedstraw plant response rating (bedstraw; [15]): 0
Bedstraw plant response rating (0 to 10 scale) (bedstraw; [9]): 0
Bedstraw plant response rating (bedstraw; [11]): 0
Bedstraw plant response rating (bedstraw; [12]): 0
Bedstraw plant response rating (bedstraw; [13]): 0
Plant response rating, Bedstraw (bedstraw; [10]): 0
Bedstraw plant response rating (bedstraw; [14]): 0

Cc1ccccc1-n1c(=O)on(C(=O)N(c2ccc(F)cc2)C2CCC2)c1=O [Compound 200]
Morningglory plant response rating (morningglory; [16]): 0
Morningglory plant response rating (morningglory; [15]): 0
Morningglory plant response rating (0 to 10 scale) (morningglory; [9]): 0
Morningglory plant response rating (morningglory; [11]): 0
Morningglory plant response rating (morningglory; [17]): 0
Morningglory plant response rating (morningglory; [13]): 0
Morningglory plant response rating (morningglory; [18]): 0
Plant response rating (0 to 10; 0 is no effect, 10 is complete control), Morningglory (morningglory; Rate 250 g/ha, Postemergence): 2
Velvetleaf plant response rating (velvetleaf; [16]): 0
Velvetleaf plant response rating (velvetleaf; [15]): 0
Velvetleaf plant response rating (velvetleaf; [11]): 0
Velvetleaf plant response rating (velvetleaf; [13]): 0
Velvetleaf plant response rating (velvetleaf; [18]): 0
Plant response rating (0 to 10; 0 is no effect, 10 is complete control), Velvetleaf (velvetleaf; Rate 250 g/ha, Postemergence): 1
Wild oats plant response rating (wild oat; [16]): 0
Wild oats plant response rating (wild oat; [15]): 0
Wild oats plant response rating (wild oat; [11]): 0
Wild oats plant response rating (wild oat; [13]): 0
Wild oats plant response rating (wild oat; [18]): 0
Plant response rating (0 to 10; 0 is no effect, 10 is complete control), Wild oats (wild oat; Rate 250 g/ha, Postemergence): 0
Bedstraw plant response rating (bedstraw; [16]): 0
Bedstraw plant response rating (bedstraw; [11]): 0
Bedstraw plant response rating (bedstraw; [17]): 0
Bedstraw plant response rating (bedstraw; [13]): 0
Bedstraw plant response rating (bedstraw; [18]): 0
Plant response rating (0 to 10; 0 is no effect, 10 is complete control), Bedstraw (bedstraw; Rate 250 g/ha, Postemergence): 0
